Data from PubChem BioAssay (NCI).
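Cultured in 96-well plates, cells were exposed to test compound for 48 hours across five concentrations. At the TGI there is no net growth.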

Experiments:
Assay in all cases: NCI-60 cell line screen, 48 h
[1] = test system: UACC-62 melanoma
[2] = test system: ACHN renal
[3] = test system: NCI-H226 lung
[4] = test system: M14 melanoma
[5] = test system: SK-MEL-5 melanoma
[6] = test system: SN12C renal
[7] = test system: NCI-H522 lung
[8] = test system: SK-MEL-2 melanoma
[9] = test system: COLO 205 colon
[10] = test system: OVCAR-8 ovarian
[11] = test system: NCI/ADR-RES ovarian
[12] = test system: A498 renal
[13] = test system: MCF7 breast
[14] = test system: LOX IMVI melanoma
[15] = test system: MDA-MB-435
[16] = test system: T-47D breast
[17] = test system: RXF 393 renal
[18] = test system: NCI-H23 lung
[19] = test system: OVCAR-4 ovarian
[20] = test system: MALME-3M melanoma
[21] = test system: U251 CNS
[22] = test system: HL-60(TB) leukemia
[23] = test system: SNB-19 CNS
[24] = test system: HS 578T breast
[25] = test system: CCRF-CEM leukemia
[26] = test system: HOP-62 NSCLC
[27] = test system: SR leukemia
[28] = test system: 786-0 renal
[29] = test system: NCI-H460 lung
[30] = test system: OVCAR-5 ovarian
[31] = test system: HT29 colon
[32] = test system: SNB-75 CNS
[33] = test system: A549 NSCLC
[34] = test system: MDA-N
[35] = test system: SF-268 CNS
[36] = test system: HCT-116 colon
[37] = test system: KM12 colon
[38] = test system: UACC-257 melanoma
[39] = test system: RPMI-8226 leukemia
[40] = test system: HOP-92 NSCLC
[41] = test system: SW-620 colon
[42] = test system: PC-3 prostate
[43] = test system: K-562 leukemia
[44] = test system: UO-31 renal
[45] = test system: IGROV1 ovarian
[46] = test system: MDA-MB-231 breast
[47] = test system: CAKI-1 renal
[48] = test system: SF-539 CNS
[49] = test system: SK-MEL-28 melanoma
[50] = test system: HCC-2998 colon
[51] = test system: EKVX NSCLC
[52] = test system: DU-145 prostate
[53] = test system: HCT-15 colon
[54] = test system: TK-10 renal
[55] = test system: MOLT-4 leukemia
[56] = test system: BT-549 breast
[57] = test system: OVCAR-3 ovarian
[58] = test system: SF-295 CNS
[59] = test system: SK-OV-3 ovarian

Compound: OCCN1CN(c2nc(N3CN(CCO)C3)nc(N3CN(CCO)C3)n2)C1
- TGI [1]: 28.8 µM
- TGI [2]: 95.3 µM
- TGI [3]: 51.2 µM
- TGI [4]: 34.3 µM
- TGI [5]: 33.4 µM
- TGI [6]: 39.5 µM
- TGI [7]: 30 µM
- TGI [8]: 41.9 µM
- TGI [9]: 59.2 µM
- TGI [10]: > 100 µM
- TGI [11]: > 100 µM
- TGI [12]: 96.2 µM
- TGI [13]: 46.9 µM
- TGI [14]: 33.5 µM
- TGI [15]: 32.4 µM
- TGI [16]: 64.7 µM
- TGI [17]: 44.8 µM
- TGI [18]: 50 µM
- TGI [19]: 85.6 µM
- TGI [20]: 39.3 µM
- TGI [21]: 53 µM
- TGI [22]: 40.1 µM
- TGI [23]: 49.6 µM
- TGI [24]: 66.7 µM
- TGI [25]: 50.6 µM
- TGI [26]: 39.2 µM
- TGI [27]: > 100 µM
- TGI [28]: 60.7 µM
- TGI [29]: 36.1 µM
- TGI [30]: 60.2 µM
- TGI [31]: 71.4 µM
- TGI [32]: 57 µM
- TGI [33]: > 100 µM
- TGI [34]: 32.3 µM
- TGI [35]: 48.3 µM
- TGI [36]: 42 µM
- TGI [37]: 47.9 µM
- TGI [38]: 36.2 µM
- TGI [39]: > 100 µM
- TGI [40]: 53 µM
- TGI [41]: > 100 µM
- TGI [42]: 49.8 µM
- TGI [43]: 87.3 µM
- TGI [44]: 56.1 µM
- TGI [45]: 85.6 µM
- TGI [46]: 36.6 µM
- TGI [47]: 58.2 µM
- TGI [48]: 35 µM
- TGI [49]: 37.3 µM
- TGI [50]: 41.7 µM
- TGI [51]: 70.1 µM
- TGI [52]: 54.7 µM
- TGI [53]: 46.7 µM
- TGI [54]: 78.7 µM
- TGI [55]: > 100 µM
- TGI [56]: 70.8 µM

Compound: c1ccc2c(c1)nc1n2CCNC1
- TGI [1]: > 100 µM
- TGI [2]: > 100 µM
- TGI [3]: > 100 µM
- TGI [4]: > 100 µM
- TGI [5]: > 100 µM
- TGI [6]: > 100 µM
- TGI [8]: > 100 µM
- TGI [9]: > 100 µM
- TGI [10]: > 100 µM
- TGI [11]: > 100 µM
- TGI [12]: > 100 µM
- TGI [13]: > 100 µM
- TGI [14]: > 100 µM
- TGI [15]: > 100 µM
- TGI [16]: > 100 µM
- TGI [17]: > 100 µM
- TGI [18]: > 100 µM
- TGI [19]: > 100 µM
- TGI [21]: > 100 µM
- TGI [22]: > 100 µM
- TGI [23]: > 100 µM
- TGI [24]: > 100 µM
- TGI [57]: > 100 µM
- TGI [25]: > 100 µM
- TGI [26]: > 100 µM
- TGI [58]: > 100 µM
- TGI [27]: > 100 µM
- TGI [28]: > 100 µM
- TGI [29]: > 100 µM
- TGI [30]: > 100 µM
- TGI [31]: > 100 µM
- TGI [32]: > 100 µM
- TGI [33]: > 100 µM
- TGI [59]: > 100 µM
- TGI [34]: > 100 µM
- TGI [35]: > 100 µM
- TGI [36]: > 100 µM
- TGI [37]: > 100 µM
- TGI [38]: > 100 µM
- TGI [39]: > 100 µM
- TGI [40]: > 100 µM
- TGI [41]: > 100 µM
- TGI [42]: > 100 µM
- TGI [43]: > 100 µM
- TGI [44]: > 100 µM
- TGI [45]: > 100 µM
- TGI [46]: > 100 µM
- TGI [47]: > 100 µM
- TGI [48]: > 100 µM
- TGI [49]: > 100 µM
- TGI [50]: > 100 µM
- TGI [51]: > 100 µM
- TGI [52]: > 100 µM
- TGI [53]: > 100 µM
- TGI [54]: > 100 µM
- TGI [55]: > 100 µM
- TGI [56]: > 100 µM
